Assay results as given in patent US4645760A, “Activated aminoglycosides and aminoglycoside-aminocyclitols pharmaceutical compositions and method of use” (priority 1983, dated 1987).
Where a name gives a salt, the structure may show the parent alone.

Legend:
E. Coli (ATC 25922) = test: disc inhibition zone, E. Coli (Table 1); assay type: cell-based; settings: for zone of inhibition at 40 µg/disc: Escherichia coli, read-out: mm inhibition zone due to 40 μgm/disc, organism - E. Coli; for mm inhibition zone, E. Coli per log concentration antibiotic: slope, 2000 and 200 ppm
Description: (§1) ^1 9 ml antibiotic #5 agar (Difco), was poured warm into 15 ×
(§2) 100 mm Plastic petri dishes and seeded with test bacteria to a density of
(§3) 2 × 10^6 bacteria per ml (except B. subtilis which was seeded a
(§4) in item 2 below). Q uarter inch sterile filter discs were placed on the
(§5) agars and loaded with 20 microliters of test solutions at concentrations
(§6) of 2000 and 200 ppm. The antibiotic amounts therefore were 40
(§7) micrograms/disc or 4 micrograms/disc. Slopes were based on duplicate
(§8) tests of each substance at these two concentrations. All substances, each
(§9) at two concentrations were tested on each plate. Data were averaged.
(§10) ^3 Concentration of compound 4 MM 0500a1 was adjusted to represent th
(§11) total organic content. That is, 2000 ppm means 2000 parts organic materia
(§12) per million parts water.

[1] = tested on: Pseudomonas aeruginosa (ATCC 22853); test: disc inhibition zone, Pseudomonas aeruginosa (Table 1); assay type: cell-based; settings: ATCC22853, read-out: mm inhibition zone due to 40 μgm/disc, organism - Pseudomonas aeruginosa
Description: as §1, §2, §3, §4, §5, §6, §7, §8, §9, §10, §11, §12

Bacillus subtilis = test: disc inhibition zone, Bacillus subtilis (Table 1); assay type: cell-based; settings: for zone of inhibition at 40 µg/disc: Bacillus subtilis, 40 μgm/disc, 30 degrees, 18 hours, read-out: mm inhibition zone due to 40 μgm/disc, organism - Bacillus subtilis; for mm inhibition zone, B. subtilis per log concentration antibiotic: slope by regression
Description: ^2 9 ml antibiotic #5 media (Difco), seeded to a concentration of 0.2
microliters of B. subtilis spores/500 ml agar, was dispensed into 15
× 100 ml plastic petri dishes. One quarter inch Schleicher and
Schuell sterile filter discs were placed on the agar and loaded with 20
microliters of dilutions of test compound including dilutions of 2000 ppm
600 ppm, 200 ppm, 60 ppm, and 20 ppm. The plates were incubated overnight
at 30 degrees centigrade, the inhibition zones measured at 18 hours. All
values were based on 6 tests at a given concentration; each plate was
corrected to an average kill zone due to 20 microliters of neomycin B bas
at a concentration of 30 ppm. Slopes and kill zones for 40 microgramloade
discs were obtained usi ng regression analysis.
as §10, §11, §12

[2] = tested on: Pseudomonas maltophilispp.; test: disc inhibition zone, Pseudomonas maltophilia (Table 1); assay type: cell-based; settings: read-out: mm inhibition zone due to 40 μgm/disc, organism - Pseudomonas maltophilispp.
Description: as §1, §2, §3, §4, §5, §6, §7, §8, §9, §10, §11, §12

S. aureus (ATCC 25923) = test: disc inhibition zone, S. aureus (Table 1); assay type: cell-based; settings: for zone of inhibition at 40 µg/disc: Staphylococcus aureus, ATCC25923, read-out: mm inhibition zone due to 40 μgm/disc, Staphylococcus aureus (printed "coccus aureus"); for mm inhibition zone, S. aureus per log concentration antibiotic: slope, 2000 and 200 ppm
Description: as §1, §2, §3, §4, §5, §6, §7, §8, §9, §10, §11, §12

B. subtilis = test: antibiotic disc diffusion after riboflavin/methionine/UV activation; assay type: cell-based; settings: for potency enhancement of mixture of activated compound and parent compound: 2.8×10^-5 M riboflavin, 0.01M methionine, half hour uv light; for potency after coincubation with irradiated riboflavin vs riboflavin-free parent solution: Example 5, methionine, 365 nm, half hour
Description: The parent compounds in the above table were subjected to two synthetic activation processes according to the present invention. As set forth below, the parent compound was incubated with 2.8×10^-5 M riboflavin and 0.01M methionine (a hydrogen donor) for a half hour in the presence of a uv light.
A solution of […] riboflavin, and a hydrogen donor such as 0.01M methionine, was irradiated with ultraviolet light at 365 nm for a half hour to produce oxygen-free radicals.

epinephrine autoxidation = epinephrine autoxidation inhibition assay (oxygen radical reactivity); assay type: biochemical; settings: for IC50: 25° C., 0.1M sodium carbonate, pH 10.2, A320, sulfate form, read-out: (A) Molarity for 50% inhibition of epinephrine autoxidation; for relative molar ratio for 50% inhibition: KM:SM:NM:GM; for B/A Molar ratio (epinephrine molarity / molarity for 50% inhibition): pH 10.2, 25° C.
Description: The oxygen radical reactivity of 4-aminoglycosides KM, streptomycin (SM), neomycin (NM), and gentamicin (GM) was tested using a previously described modification of the commonly used epinephrine autoxidation assay. […] Further studies are required to determine the identification of the reacting active oxygen species (e.g. singlet oxygen, hydroperoxy radicals, superoxide radicals, hydroxyl radicals, or others).
Reactions were performed at 25° C.; in 0.1M sodium carbonate, pH 10.2. Absorbance at 320 nm (A320) as measured with a Varian model 219 spectrophotometer. Antibiotics (Sigma) were used in the sulfate form; the working molecular weight reflects the anhydrous weight of the base. At least five aminoglycoside concentrations, each replicated four times, were used to estimate the 50% epinephrine autoxidation inhibition value. Epinephrine concentrations yielding between 0.23 and 0.27 ΔA320 per minute was the basis for calculating the percent of inhibition. The data were analyzed by linear regression; standard deviations are shown.
When the unactivated aminoglycoside-aminocyclitol compounds are added at pH=10.2 to a cuvette containing epinephrine and 0.1 molar carbonate buffer, the aminoglycosides block the autoxidation of epinephrine to adrenochrome on approximately a mole-to-mole basis. This blockade is monitored spectrophotometrically at 320 nm and is a linear function of drug concentration. Using 9×10^-4 molar epinephrine, the linear region extends from 10^-5 to 10^-3 molar aminoglycoside. The sensitivity of this assay can be extended by lowering the starting epinephrine concentration.

superoxide free radicals = test: block of nitro-blue tetrazolium (NBT) reduction by superoxide; assay type: biochemical; settings: photoreduced riboflavin or xanthine-xanthine oxidase; 560 nm; unactivated aminoglycosides
Excerpt: (§13) The auto-oxidation of epinephrine is blocked on a mole-to-mole basis by aminoglycosides and aminoglycoside-aminocyclitols. […] Other colorimetric or chemiluminescence assays for superoxide or hydroxyl radicals which use dyes or other reagents that can develop color selectively in the presence of these radicals can also form the basis of rapid photometric assays for parent aminoglycoside and aminoglycoside-aminocyclitol levels in biological or other aqueous solutions. The degree to which colored products are blocked by the aminoglycoside or the aminoglycoside-aminocyclitol compound would be directly proportional to the concentration of aminoglycosides and aminoglycoside-aminocyclitol compounds. Representative dyes and reactants include the following non-limitative list:
This is spectrophotometrically monitored at 560 nm, where the maximum absorbance of reduced NBT occurs. This procedure decreases in sensitivity at pH's higher than 7.0 and at very high (millimolar) drug concentrations. The reason for these limits is that superoxide reacts with aminoglycosides to generate a reducing compound which can interfere with the assay by directly reducing NBT.

hydroxyl free radicals = test: hydroxyl free radical spin-adduct formation by Electron Paramagnetic Resonance; assay type: biochemical; settings: spin traps ntb or DMPO; xanthine/xanthine oxidase, pH 7.8; millimolar drug
Excerpt: as §13
Two spin traps were examined with the same conclusion, nitrosotertiary-butyl (ntb) and 5,5-dimethyl-1-pyrroline-1-oxide. The reaction mixture used to produce hydroxyl radical included 10^-4 M xanthine, 6×10^-8 M xanthine oxidase, 10^-3 EDTA, 10^-4 M spin trap (DMPO or ntb), 8.9×10^-5 M H2 O2, 0.1M potassium phosphate buffer; final pH--7.8. The free radical signals were directly monitored with and without the antibiotics by using the techniques of Electron Paramagnetic Resonance starting 2 minutes after reaction initiation. The scan range=100 Gauss; time constant=0.064 sec; modulation amplitude=1 Gauss; Microwave power=1 Mw; Microwave frequency=9.418 GHz; Field set=3350 Gauss; scan time=20 seconds; modulation frequency=100 KHz. AH =AN =14.9 G.

[3] = assay type: physicochemical
[4] = tested on: bacteria (E. coli, Pseudomona aeruginosa); test: bacterial killing by aminoglycosides (gentamicin, kanamycin) with coincubated enzyme; assay type: cell-based; settings: coincubation, extracellular enzyme

Compound | potency enhancement of mixture of activated compound and parent compound (B. subtilis) | potency after coincubation with irradiated riboflavin vs riboflavin-free parent solution (B. subtilis) | IC50 (epinephrine autoxidation) | relative molar ratio for 50% inhibition (epinephrine autoxidation) | B/A Molar ratio (epinephrine molarity / molarity for 50% inhibition) (epinephrine autoxidation) | NBT reduction rate / blockade (superoxide free radicals) | hydroxyl free radical spin-adduct formation (hydroxyl free radicals) | other results
NC[C@H]1O[C@H](O[C@H]2[C@H](O)[C@@H](O)[C@H](N)C[C@@H]2N)[C@H](N)[C@@H](O)[C@@H]1O [Neomycin A base (neamine), Neomycin A base] | – | – | – | – | – | – | – | zone of inhibition at 40 µg/disc (E. Coli (ATC 25922)): 24.7 mm; mm inhibition zone, E. Coli per log concentration antibiotic (E. Coli (ATC 25922)): 7.8 mm per log concentration; zone of inhibition at 40 µg/disc [1]: 0 mm; zone of inhibition at 40 µg/disc (Bacillus subtilis): 33.8 mm; mm inhibition zone, B. subtilis per log concentration antibiotic (Bacillus subtilis): 7.0 mm per log concentration; zone of inhibition at 40 µg/disc [2]: 0 mm; zone of inhibition at 40 µg/disc (S. aureus (ATCC 25923)): 29.8 mm; mm inhibition zone, S. aureus per log concentration antibiotic (S. aureus (ATCC 25923)): 9.4 mm per log concentration
gentamicin [GM] | 167% | enhanced potency | 4.4 ± 0.46 mM | ~1 | 0.19 | the rate of NBT reduction is slowed proportionally to the concentration of aminoglycoside | – | –
[H]/N=C(/N)N[C@H]1[C@H](O)[C@@H](O)[C@H](O[C@@H]2O[C@@H](C)[C@](O)(C=O)[C@H]2O[C@@H]2O[C@@H](CO)[C@H](O)[C@@H](O)[C@@H]2NC)[C@@H](N/C(N)=N\[H])[C@@H]1O [SM, streptomycin] | 18% | enhanced potency | 0.74 ± 0.1 mM | ~ 6 | 1.08 | – | – | –
NC[C@H]1O[C@H](O[C@H]2[C@H](O)[C@@H](O[C@H]3O[C@H](CO)[C@@H](O)[C@H](N)[C@H]3O)[C@H](N)C[C@@H]2N)[C@H](O)[C@@H](O)[C@@H]1O [kanamycin sulfate] | – | – | – | – | – | – | prevented in a concentration-dependent manner | –
NC[C@@H]1O[C@H](O[C@H]2[C@@H](O)[C@H](O[C@@H]3[C@@H](O)[C@H](N)C[C@H](N)[C@H]3O[C@H]3O[C@H](CN)[C@@H](O)[C@H](O)[C@H]3N)O[C@@H]2CO)[C@H](N)[C@@H](O)[C@@H]1O [neoomycin B sulfate, neomycin B sulfate] | – | – | – | – | – | – | prevented in a concentration-dependent manner | –
NC[C@@H]1O[C@H](O[C@H]2[C@@H](O)[C@H](O[C@@H]3[C@@H](O)[C@H](N)C[C@H](N)[C@H]3O[C@H]3O[C@H](CN)[C@@H](O)[C@H](O)[C@H]3N)O[C@@H]2CO)[C@H](N)[C@@H](O)[C@@H]1O [NMb, Neomycin B base] | – | – | – | – | – | the rate of NBT reduction is slowed proportionally to the concentration of aminoglycoside | – | zone of inhibition at 40 µg/disc (E. Coli (ATC 25922)): 14.9 mm; mm inhibition zone, E. Coli per log concentration antibiotic (E. Coli (ATC 25922)): 5.5 mm per log concentration; zone of inhibition at 40 µg/disc [1]: 10.7 mm; zone of inhibition at 40 µg/disc (Bacillus subtilis): 23.3 mm; mm inhibition zone, B. subtilis per log concentration antibiotic (Bacillus subtilis): 5.6 mm per log concentration; solubility in DMSO [3]: DMSO- insoluble; zone of inhibition at 40 µg/disc [2]: 8.3 mm; zone of inhibition at 40 µg/disc (S. aureus (ATCC 25923)): 17.2 mm; mm inhibition zone, S. aureus per log concentration antibiotic (S. aureus (ATCC 25923)): 6.1 mm per log concentration
NC[C@H]1O[C@H](O[C@H]2[C@H](O)[C@@H](O[C@H]3O[C@H](CO)[C@@H](O)[C@H](N)[C@H]3O)[C@H](N)C[C@@H]2N)[C@H](O)[C@@H](O)[C@@H]1O [KM, kanamycin] | 25% | enhanced potency | 0.7 ± 0.1 mM | ~ 6 | 1.11 | the rate of NBT reduction is slowed proportionally to the concentration of aminoglycoside | – | epinephrine autoxidation blocked (epinephrine autoxidation; fourfold molar excess of KM): 97%
Catalase | – | – | – | – | – | – | – | effect on bacterial killing by aminoglycosides (gentamicin, kanamycin) [4]: Catalase blockade occurs alone
[H]/N=C(/N)N[C@H]1[C@H](O)[C@@H](O)[C@H](O[C@@H]2O[C@@H](C)[C@](O)(C=O)[C@H]2O[C@@H]2O[C@@H](CO)[C@H](O)[C@@H](O)[C@@H]2NC)[C@@H](N/C(N)=N\[H])[C@@H]1O [streptomycin sulfate] | – | – | – | – | – | – | prevented in a concentration-dependent manner | –
NC[C@@H]1O[C@H](O[C@H]2[C@@H](O)[C@H](O[C@@H]3[C@@H](O)[C@H](N)C[C@H](N)[C@H]3O[C@H]3O[C@H](CN)[C@@H](O)[C@H](O)[C@H]3N)O[C@@H]2CO)[C@H](N)[C@@H](O)[C@@H]1O [NM, neomycin] | 100% | enhanced potency | 2.1 ± 0.14 mM | ~2 | 0.39 | – | – | –
